Results published in PubChem BioAssay AID1198 (NMMLSC, 2008).
Calls of active or inactive are those of the source.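 Rule for the calls: active = EC50 under 10 microM for raising side scatter, a sign of cell differentiation; inactive = the rest, including fits that never converged.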

Test system: LNCaP side scatter shift, flow cytometry, 4 days
Assay: activators of LNCaP prostate cell differentiation, dose response, flow cytometry, side scatter granularity (AID 1198)

Row | Compound | EC50
1 | COc1ccc(-c2noc(-c3cc(Cl)ccc3Cl)n2)cc1OC | 5.7 µM
2 | Cc1cc(N2CCN(C)CC2)nc2ccc(NC(=O)c3ccc4c(c3)OCO4)cc12 | 10.4 µM (inactive)
3 | COc1ccc(N2CCN(CCCNC(=O)CC3Oc4ccc(C)cc4NC3=O)CC2)cc1 (stereo not given) | 27 µM (inactive)
4 | CN1CCN(CCCNC(=O)c2cc3c(-c4ccc(Cl)cc4)nn(C)c3s2)CC1 | 6.41 µM
5 | N=c1n(CCN2CCCCC2)c2ccccc2n1CC(O)COc1ccccc1 (stereo not given) | 0.994 µM
6 | Cn1nc(-c2ccc(Cl)cc2)c2cc(C(=O)NCCCN3CCOCC3)sc21 | 5.53 µM
7 | CCN1CCN(C(c2cccs2)C(C)NS(=O)(=O)c2ccc(Br)cc2)CC1 (stereo not given) | 15.2 µM (inactive)
8 | CN(CC(O)COc1ccc(OCC(O)CN(C)C2CCCCC2)cc1)C1CCCCC1 (stereo not given) | 4.32 µM
9 | Cc1ccccc1-c1nc(CN2CCCC(C(=O)NCCCN3CCOCC3)C2)c(C)o1 (stereo not given) | 7.03 µM
10 | CCCN(CCC)CCNC(=O)C1CCN(Cc2nc(-c3ccc(Cl)cc3)oc2C)CC1 | 0.768 µM
11 | CCN1CCN(CCNC(=O)C2CCN(Cc3nc(-c4ccc(Cl)cc4)oc3C)CC2)CC1 | 16.6 µM (inactive)
12 | Cc1ccccc1-c1nc(CN2CCC(C(=O)NCCCN3CCOCC3)CC2)c(C)o1 | 6.69 µM
13 | Cc1oc(-c2ccc(Cl)cc2)nc1CN1CCC(C(=O)NCCCN2CCOCC2)CC1 | 3 µM
14 | Cc1ccc(OCC(O)Cn2c(=N)n(CCN3CCCCC3)c3ccccc32)cc1 (stereo not given) | 4.11 µM
15 | CCN1CCCC1CNC(=O)C1CCN(Cc2nc(-c3cccc(Br)c3)oc2C)CC1 (stereo not given) | 1.12 µM
16 | CN1CCN(c2cc3c(c4c2[nH]c2ccccc24)C(=O)CC(C)(C)C3)CC1 | 3.65 µM
17 | Cc1noc(/C=C/c2ccco2)c1S(=O)(=O)N1CCC(C(=O)N2CCc3ccccc3C2)CC1 | 5.2 µM
18 | CN(C)c1ccc(CNC2CC(C)(C)NC(C)(C)C2)cc1 | 8.74 µM

The remaining lines, values ahead:

Row | EC50 | Compound
19 | 7.49 µM | COc1ccc(CCn2c(=N)c(C(=O)NCc3ccco3)cc3c(=O)n4ccccc4nc32)cc1
20 | 6.5 µM | CC1CCCCN1CCNC(=O)c1ccc2c(=O)n(CCc3ccccc3)c(=O)[nH]c2c1 (stereo not given)
21 | 9.52 µM | COc1ccccc1NC(=O)c1nc[nH]c1C(=O)Nc1ccccc1OC
22 | 10.4 µM (inactive) | COc1ccc(-c2ccc(-c3noc(-c4ccccc4)n3)c(OC)n2)cc1
23 | 6.66 µM | CCOc1ccccc1NC(=O)c1nc[nH]c1C(=O)Nc1ccccc1OCC
24 | 1.87 µM | COC(=O)c1cc(-c2ccccc2)sc1NC(=O)c1cc(C)on1
25 | 8.92 µM | CCn1c(=O)cc(SCC(=O)NCCCN2CCN(c3ccccc3F)CC2)c2ccccc21
26 | 5.59 µM | CCN1CCN(c2ncc(C(=O)Nc3cc(Cl)c(OC)cc3OC)c3ccccc23)CC1
27 | 20.6 µM (inactive) | CCOc1cccc2cc(-c3cn4cc(C)ccc4n3)c(=O)oc12
28 | 3.81 µM | Oc1c(CN2CCCCC2)cc(COCc2ccccc2)c2cccnc12
29 | 2 µM | CCN(CCNC(=O)C1CCN(Cc2nc(-c3ccc(Cl)cc3)oc2C)CC1)c1ccccc1
30 | 8.06 µM | Cc1ccc2c(c1)-c1c(cnn1CC(=O)Nc1ccccc1N1CCN(C)CC1)CO2
